Reference: publication PMC9180170, “Amentoflavone Promotes Cellular Uptake and Degradation of Amyloid-Beta in Neuronal Cells” (International Journal of Molecular Sciences, 2022)

Columns and labels:
N2a cells [1] = experiment: Aβ uptake assay with fluorescently labeled Aβ in N2a cells; type: cell-based, mouse; conditions: for effect on cellular uptake of TAMRA-Aβ1-40 (in words): 200 nM TAMRA-Aβ1-40, various concentrations of compound; for increase in Aβ1-40 uptake: fluorometry
Method: Fluorescent conjugated Aβ peptides were ≥95% in purity as determined by the HPLC method per the vendor (AnaSpec; Fremont, CA, USA). These peptides were dissolved in dimethyl sulfoxide to make 100 μM stock solutions, aliquoted, and stored at −80 °C until use. The fluorescent intensity and protein concentration of each peptide was determined as described below to calculate their specific activities (fluorescent intensity per mg of the conjugated peptide).
(§1) The Aβ uptake assay was performed as described, with modifications. N2a cells were seeded in a 24-well culture plate (2 × 10^5 cells/well) the day prior to the experiments. The next day (cell density at near confluency), cells were rinsed twice with warmed (37 °C) DMEM and incubated in DMEM containing 0.1% bovine serum albumin, 200 nM fluorescently labeled Aβ in the presence or absence of various concentrations of test compounds in a final volume of 200 µL. Cells were then incubated at 37 °C for three hours in the humidified CO2 incubator. The culture plate was placed on ice and the reaction medium was collected in a 1.5-mL microcentrifuge tube. Cells were rinsed twice with phosphate-buffered saline (PBS) containing 137 mM NaCl, 2.7 mM KCl, 10 mM Na2HPO4, and 1.8 mM KH2PO4 (pH: 7.4). To cleave cell surface-bound Aβ and extracellular matrix proteins, cells were treated with 0.05% trypsin in 200 µL PBS at room temperature on an orbital shaker for 5 min. Detached cells were transferred to a microcentrifuge tube and centrifuged at 5000× g for 5 min using a bench-top centrifuge (Thermo Fisher Scientific, Waltham, MA, USA). The supernatant and cell pellet were separated and kept at −80 °C until analysis. Cells were lysed in a buffer containing 20 mM HEPES (pH 7.4), 7.5 mM MgCl2, 1% sodium dodecyl sulfate, 1% Triton X-100, and Complete protease inhibitor cocktail (Sigma-Aldrich, St. Louis, MO, USA). The cell lysate was centrifuged at 10,000× g at 4 °C for 10 min. The fluorescent intensity was measured at λEX = 490 and λEM = 520 for FAM, and λEX = 545 and λEM = 575 for TAMRA using a Biotek Synergy HT plate reader (Winooski, VT). Protein concentrations of the cell lysates were determined using a BCA assay kit (Sigma-Aldrich, St. Louis, MO, USA). The fluorescent intensity of each sample was used to calculate an amount of Aβ in pmole and normalized to protein content. Cellular uptake of Aβ was expressed as pmole/mg protein.

N2a cells [2] = experiment: Lactate dehydrogenase (LDH) activity assay for cytotoxicity; type: cell-based, mouse; conditions: 24 h
Method: The cytotoxicity of Aβ species in N2a cells was assessed using an LDH activity assay kit according to the manufacturer’s protocol (Sigma-Aldrich, St. Louis, MO, USA). Briefly, the Aβ uptake assay was performed as described above using FAM-Aβ1-40 or FAM-Aβ1-42. Twenty-four hours later, the incubation medium was transferred to a microcentrifuge tube and spun at 10,000× g for 5 min to remove cell debris. Triplicate samples of the assay medium were added with an equal volume of LDH master reaction mixture (50 µL/well) to each well of a 96-well plate. The optical density was measured at 37 °C for 30 min at a 5-min interval at a wavelength of 450 nm using a plate reader (Biotek, Winooski, VT, USA).

N2a cells [3] = experiment: Aβ uptake assay with pharmacologic inhibitors of endocytosis; type: cell-based, mouse; conditions: for effect on TAMRA-Aβ1-40 uptake with or without AMF (in words): in the presence or absence of 10 μM AMF, heparin 20 U/mL, cytochalasin D 0.4 or 2 μg/mL
Method: as §1
To examine the role of receptor-mediated endocytosis on AMF-induced promotion of Aβ1-40 uptake, we performed the Aβ uptake assay utilizing pharmacologic inhibitors of endocytosis. […] Thirty minutes later, cells were subjected to the Aβ uptake assay with or without 10 μM AMF as described above.

N2a cells [4] = experiment: Immunoblotting of internalized Aβ1-40 in cell lysates; type: cell-based, mouse; conditions: for effect on intracellular levels of full-length (~4-kDa) monomeric Aβ1-40: N2a cells, unlabeled Aβ1-40, 3 h, 10 μM AMF or leupeptin 100 μg/mL, SDS-PAGE and immunoblotting, normalized to α-tubulin
Method: To examine the integrity of Aβ1-40 taken up into neuronal cells, N2a cells were treated with the lysosomal enzyme inhibitor, leupeptin (100 μg/mL), unlabeled Aβ1-40 peptide in the presence or absence of AMF and for 3 h, and cell lysates were subjected to SDS-PAGE followed by immunoblotting with an anti-Aβ1-40 antibody (Figure 4A,B). We observed that the intracellular levels of the full-length (~4-kDa), monomeric Aβ1-40 was increased in the presence of AMF (Figure 4A,B). […] The internalized Aβ1-40 was almost completely degraded within 3 h when N2a cells were incubated with Aβ1-40 for 3 h followed by incubation in the Aβ1-40-free culture medium (washout) for an additional 3 h (Figure 4A,B).
An equal amount of protein samples (5 µg/lane) was separated on a 4–20% gradient tris-tricine gel (Bio-Rad, Hercules, CA, USA) per our published protocol. The gel was transferred to a nitrocellulose membrane (Bio-Rad) at 4 °C for 3 h. Blots were blocked with PBS containing 5% dry milk for 1 h and incubated in PBS solution containing an anti-Aβ antibody HJ2 (1:2000 dilution) or anti-α-tubulin antibody (1:5000 dilution, Sigma-Aldrich). After washing, blots were incubated with goat anti-mouse IgG conjugated with horseradish peroxidase (Bio-Rad, Hercules, CA, USA). The signal was visualized using the HRP chemiluminescent kit (ThermoFisher Scientific, Waltham, MA, USA), and photographic images were taken using a Syngene gel imaging system (Frederick, MD, USA).

immortalized astrocytes = experiment: Aβ uptake assay in immortalized astrocytes; type: cell-based; conditions: immortalized mouse astrocytes, 2 or 10 μM AMF, 200 nM TAMRA-Aβ1-40, 3 h
Method: (§2) Figure 7 Amentoflavone promotes the cellular uptake of Aβ peptide in glial cells. Mouse BV2 microglial cells (A) and immortalized astrocytes (B) were incubated with or without 2 or 10 μM amentoflavone (AMF) plus 200 nM TAMRA Aβ1-40 for three hours at 37 °C. The cells were harvested, and the fluorescent intensity of TAMRA was determined by fluorometry.
(§3) N2a cells were grown in Dulbecco’s Modified Eagle Medium (DMEM) supplemented with 10% fetal bovine serum, 100 U/mL penicillin and 100 µg/mL streptomycin at 37 °C in a humidified CO2 incubator (Thermo Fisher Scientific, Waltham, MA, USA). Cells at less than five passages were used in the experiments. The immortalized BV-2 murine microglial cell line was grown and maintained in DMEM containing antibiotics and 2% fetal bovine serum. The immortalized mouse astrocyte cell line was kindly gifted by David Holtzman at Washington University in St. Louis and maintained in DMEM containing antibiotics and 10% fetal bovine serum.
(§4) The Aβ uptake assay was performed as described, with modifications. […] The fluorescent intensity was measured at λEX = 490 and λEM = 520 for FAM, and λEX = 545 and λEM = 575 for TAMRA using a Biotek Synergy HT plate reader (Winooski, VT). Protein concentrations of the cell lysates were determined using a BCA assay kit (Sigma-Aldrich, St. Louis, MO, USA). […] Cellular uptake of Aβ was expressed as pmole/mg protein.

N2a cells [5] = experiment: Aβ uptake assay with fluorescently labeled Aβ in N2a cells; type: cell-based, mouse; conditions: 200 nM TAMRA-Aβ1-40, 10 μM AMF, one, three and six hours, TAMRA fluorescence liberated by trypsin digestion
BV2 microglial cells = experiment: Aβ uptake assay in BV2 microglia; type: cell-based, mouse; conditions: 200 nM TAMRA-Aβ1-40, 3 h, 37 °C, three independent experiments
Method: as §2, §3, §4

Compound: TAMRA-Aβ1-40: Aβ1-40 conjugated with a fluorophore 5-carboxytetramethylrhodamine [reference compound]
- concentration of TAMRA-Aβ1-40 in the culture medium without AMF (N2a cells [1]; 200 nM TAMRA-Aβ1-40 alone (vehicle), after 3 h, mean ± S.E.M. (n = 4)): 189 ± 0.6 nM

Compound: O=C(O[C@@H]1Cc2c(O)cc(O)cc2O[C@@H]1c1cc(O)c(O)c(O)c1)c1cc(O)c(O)c(O)c1 [EGCG, (-)-epigallocatechin gallate, reference compound]
- effect on cellular uptake of TAMRA-Aβ1-40 (in words) (N2a cells [1]; 3 h): little to no effect

Compound: O=c1c(O)c(-c2ccc(O)c(O)c2)oc2cc(O)cc(O)c12 [quercetin, reference compound]
- effect on cellular uptake of TAMRA-Aβ1-40 (in words) (N2a cells [1]; 3 h): little to no effect

Compound: FAM-Aβ1-40: 5-carboxyfluorescein-labeled Aβ1-40 [reference compound]
- cytotoxicity by LDH release (in words) (N2a cells [2]; 200 nM peptide, in the absence or presence of AMF): did not cause cell death

Compound: ApoE particles: astrocyte-secreted apolipoprotein E particles, inhibitor of LRP-1-mediated endocytosis
- inhibition of AMF-induced TAMRA-Aβ1-40 uptake (N2a cells [3]; 200 nM ApoE particles plus 10 μM AMF, 3 h): ~ 30%
- decrease of cellular uptake of TAMRA-Aβ1-40 (N2a cells [3]; 200 nM ApoE particles, no AMF, 3 h): ~ 75%

Compound: O=c1cc(-c2ccc(O)c(-c3c(O)cc(O)c4c(=O)cc(-c5ccc(O)cc5)oc34)c2)oc2cc(O)cc(O)c12 [AMF, amentoflavone]
- effect on intracellular levels of full-length (~4-kDa) monomeric Aβ1-40 (N2a cells [4]): increased
- TAMRA-Aβ1-40 uptake with AMF, no inhibitor (N2a cells [3]; 10 μM AMF, 200 nM TAMRA-Aβ1-40, 3 h, mean ± S.E.M., three independent experiments): 3.01 ± 0.22 pmole/mg protein
- effect on cellular uptake of TAMRA-Aβ1-40 in astrocytes (in words) (immortalized astrocytes): significantly increased to a similar extent
- effect on intracellular accumulation of FAM-Aβ1-40 (N2a cells [1]; 200 nM FAM-Aβ1-40, various concentrations of AMF, 3 h): increased
- cellular uptake of FAM-Aβ1-42 with AMF (N2a cells [1]; 200 nM FAM-Aβ1-42 plus 10 μM AMF, 3 h, mean ± S.E.M. (n = 4)): 7.52 ± 0.50 pmole/mg protein
- effect on internalization of the inverted peptide FAM-Aβ42-1 (N2a cells [1]; 200 nM FAM-Aβ42-1, 10 μM AMF, 3 h): no effect
- increase in Aβ1-40 uptake (N2a cells [1]; 200 nM TAMRA-Aβ1-40, 1 μM compound, 3 h, 37 °C, mean ± S.E.M. (n = 4)): 1.48 ± 0.05 fold
- increase in Aβ1-40 uptake (N2a cells [1]; 200 nM TAMRA-Aβ1-40, 3 μM compound, 3 h, 37 °C, mean ± S.E.M. (n = 4)): 2.48 ± 0.18 fold
- increase in Aβ1-40 uptake (N2a cells [1]; 200 nM TAMRA-Aβ1-40, 10 μM compound, 3 h, 37 °C, mean ± S.E.M. (n = 4)): 3.64 ± 1.12 fold
- effect on cellular uptake of TAMRA-Aβ1-40 (in words) (N2a cells [1]; 3 h): most potent activity
- concentration of TAMRA-Aβ1-40 in the culture medium with AMF (N2a cells [1]; 200 nM TAMRA-Aβ1-40 plus 10 μM AMF, after 3 h, mean ± S.E.M. (n = 4)): 170 ± 1.6 nM
- effect on TAMRA-Aβ1-40 binding to cell membrane (N2a cells [5]): significantly increased
- effect on FAM-Aβ1-42-induced LDH release (N2a cells [2]; 200 nM FAM-Aβ1-42, co-treatment with 1, 3 and 10 μM AMF): significantly inhibited
- increase in intracellular levels of TAMRA-Aβ1-40 (BV2 microglial cells; 2 μM AMF): 2.2 fold
- increase in intracellular levels of TAMRA-Aβ1-40 (BV2 microglial cells; 10 μM AMF): 3.0 fold

Compound: heparin
- effect on TAMRA-Aβ1-40 uptake with or without AMF (in words) (N2a cells [3]; 200 nM TAMRA-Aβ1-40, 3 h): in part attenuated

Compound: FAM-Aβ1-42: FAM-labeled Aβ1-42 [reference compound]
- cellular uptake of labeled peptide without AMF (N2a cells [1]; 200 nM peptide, DMEM with 0.1% BSA, 3 h, 37 °C, fluorometry of cell lysate after trypsin, mean ± S.E.M. (n = 4)): 3.34 ± 0.84 pmole/mg protein

Compound: C=C1[C@@H](C)[C@H]2[C@H](Cc3ccccc3)NC(=O)[C@]23[C@H](OC(C)=O)/C=C/[C@@](C)(O)C(=O)[C@@H](C)C/C=C/[C@H]3[C@@H]1O [cytochalasin D]
- effect on TAMRA-Aβ1-40 uptake with or without AMF (in words) (N2a cells [3]; 200 nM TAMRA-Aβ1-40, 3 h): not blocked

Compound: fucoidan
- effect on TAMRA-Aβ1-40 uptake without AMF (in words) (N2a cells [3]; 200 nM TAMRA-Aβ1-40, 3 h, no AMF): no effect
- TAMRA-Aβ1-40 uptake with inhibitor in the presence of AMF (N2a cells [3]; 100 μM fucoidan (30 min pretreatment) plus 10 μM AMF, 200 nM TAMRA-Aβ1-40, 3 h, mean ± S.E.M., three independent experiments): 1.98 ± 0.17 pmole/mg protein

Compound: Aβ1-40: unlabeled human Aβ1-40 peptide
- time to almost complete degradation of internalized Aβ1-40 (N2a cells [4]; N2a cells incubated with Aβ1-40 for 3 h, then Aβ1-40-free culture medium (washout), immunoblotting): ≤ 3 h

Compound: O=c1cc(-c2ccc(O)cc2)oc2cc(O)cc(O)c12 [apigenin, reference compound]
- effect on cellular uptake of TAMRA-Aβ1-40 (in words) (N2a cells [1]; 3 h): little to no effect

Compound: CC(=O)N[C@@H](CC(C)C)C(=O)N[C@@H](CC(C)C)C(=O)N[C@H](C=O)CCCNC(=N)N [leupeptin, reference compound]
- effect on intracellular levels of full-length (~4-kDa) monomeric Aβ1-40 (N2a cells [4]): significantly increased
- effect on AMF-induced promotion of Aβ1-40 uptake (N2a cells [1]; TAMRA-Aβ1-40, leupeptin plus 10 μM AMF, peptide remaining in the culture medium): did not influence
